Data from US20140309192A1, “MODULATORS OF THE G PROTEIN-COUPLED MAS RECEPTOR AND THE TREATMENT OF DISORDERS RELATED THERETO” (ARENA PHARMACEUTICALS, INC., priority 2011, published 2014).
pIC50: −log10 of the molar value.

Key:
[1] = biological target: T1, human Mas receptor (Homo sapiens, UniProt P04201); test: HTRF IP1 assay, HEK293 cells expressing human Mas receptor; format: cell-based; conditions: HTRF IP1 assay, human Mas receptor (Table B.2); read-out: IC50
T1 construct: expressed in transfected cells; host or cells: HEK293 (ATCC CRL-1573)
T1 sequence (P04201 1-325): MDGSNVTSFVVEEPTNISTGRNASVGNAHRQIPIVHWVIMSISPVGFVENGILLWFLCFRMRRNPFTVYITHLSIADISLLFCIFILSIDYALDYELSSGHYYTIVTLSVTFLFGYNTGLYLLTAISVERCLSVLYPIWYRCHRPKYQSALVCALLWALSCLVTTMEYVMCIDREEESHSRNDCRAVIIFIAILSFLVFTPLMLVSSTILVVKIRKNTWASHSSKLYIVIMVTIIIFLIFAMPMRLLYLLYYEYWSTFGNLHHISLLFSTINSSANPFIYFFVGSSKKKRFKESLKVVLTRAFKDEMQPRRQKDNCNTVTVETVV
From the text: (§1) Human and rat Mas receptors were either transiently or stably expressed in HEK293 cells. For transient transfections, human or rat Mas in pHM6 vector were transfected into HEK293 cells using Lipofectamine® (Invitrogen #18324-012). HEK293 cells transfected with empty pHM6 vector were used as a control. For generation of stable cell lines, cDNA expression plasmids encoding human or rat Mas genes and the neo^r gene were transfected into HEK293 cells (ATCC# CRL-1573) using Lipofectamine® (Invitrogen) according to the manufacturer's instructions. Stable receptor expressing pools were then generated over 3 weeks by standard techniques in the presence of 500 μg/mL Geneticin® (Gibco). Individual receptor stable pools were dilution cloned using standard techniques and clones were comparatively evaluated in inositol phosphate accumulation assays. Preferred clones were banked and cultured as needed. HEK293 cells were used as controls. The 384 well IP-One HTRF® Assay (Cisbio #62P1APEJ) was performed as described by the manufacturer's protocol. Cells were plated in at 100,000 cells per well in 15 μL DMEM (Gibco #11960) and incubated in a CO2 incubator at 37° C. for 2 h. Five μL of compounds diluted in 2× stimulation buffer plus 0.4% BSA (Sigma (#A3059) were added to each well and serial diluted IP1 standards (Cisbio #62IP1CDA) were also added to corresponding wells at this step. After the cells were incubated for 4 h in a CO2 incubator at 37° C., d2-labeled IP1 and cryptate-labeled anti-IP1 monoclonal antibody diluted in lysis buffer were added sequentially in 10 μL per well and the assay plates were kept in the dark at room temperature overnight. Ratiometric measurements of fluorescence emission at 665 nm and 620 nm were obtained using a Pherastar fluorometer (BMG Labtech). IP1 levels in each well were calculated according to the standard curves on each plate. IC50 values were obtained by fitting data to a nonlinear curve-fitting program (GraphPad Software, Inc., La Jolla Calif.).

[2] = biological target: T2, rat Mas receptor (Rattus norvegicus, UniProt P12526); test: HTRF IP1 assay, HEK293 cells expressing rat Mas receptor; format: cell-based; conditions: HTRF IP1 assay, rat Mas receptor (Table B.1); read-out: IC50
T2 construct: expressed in transfected cells; host or cells: HEK293 (ATCC CRL-1573)
T2 sequence (P12526 1-324): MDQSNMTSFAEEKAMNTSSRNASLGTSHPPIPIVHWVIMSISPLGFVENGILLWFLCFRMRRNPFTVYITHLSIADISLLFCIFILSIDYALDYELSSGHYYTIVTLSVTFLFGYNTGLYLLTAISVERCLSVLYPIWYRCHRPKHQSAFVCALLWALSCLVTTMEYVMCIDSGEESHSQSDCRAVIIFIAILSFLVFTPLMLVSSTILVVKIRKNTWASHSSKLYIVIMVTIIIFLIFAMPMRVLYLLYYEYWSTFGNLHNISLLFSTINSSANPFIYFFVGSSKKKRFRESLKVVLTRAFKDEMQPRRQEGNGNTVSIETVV
From the text: as §1

Row | SMILES | pIC50 [1] | pIC50 [2]
1 | O=C(Nc1cc(Cl)c(Cl)cc1N1CCN(CCC(F)(F)F)CC1)c1ccc(CN2CCS(=O)(=O)CC2)c(F)c1F [Compound 186, N-(4,5-Dichloro-2-(4-(3,3,3-trifluoropropyl)piperazin-1-yl)phenyl)-2,3-difluoro-4-((1,1-dioxo-thiomorpholin-4-yl)methyl)benzamide] | 7.31 | 
2 | NCc1ccc(C(=O)Nc2ccc(Cl)cc2N2CCN(CCC(F)(F)F)CC2)c(F)c1 [Compound 26, 4-(Aminomethyl)-N-(4-chloro-2-(4-(3,3,3-trifluoropropyl)piperazin-1-yl)phenyl)-2-fluorobenzamide] | 7.06 | 
3 | CCOC(=O)CN1Cc2ccc(C(=O)Nc3ccc(Cl)cc3N3CCN(CCC(F)(F)F)CC3)cc2C1 [Compound 27, Ethyl 2-(5-(4-chloro-2-(4-(3,3,3-trifluoropropyl)piperazin-1-yl)phenylcarbamoyl)isoindolin-2-yl)acetate] |  | 6.19
4 | O=C(Nc1ccc(Cl)cc1N1CCN(CCC(F)(F)F)CC1)c1ccc2c(c1)CNCC2 [Compound 13, N-(4-Chloro-2-(4-(3,3,3-trifluoropropyl)piperazin-1-yl)phenyl)-1,2,3,4-tetrahydroisoquinoline-7-carboxamide] | 7.05 | 
5 | O=C(Nc1ccc(Cl)cc1N1CCN(CCC(F)(F)F)CC1)c1ccc(CN2CCC(CO)CC2)cc1F [Compound 54, N-(4-Chloro-2-(4-(3,3,3-trifluoropropyl)piperazin-1-yl)phenyl)-2-fluoro-4-((4-(hydroxymethyl)piperidin-1-yl)methyl)benzamide] |  | 6.30
6 | O=C(Nc1ccc(Cl)cc1N1CCN(CCC(F)(F)F)CC1)c1ccc(CNCc2nn[nH]n2)c(F)c1F [Compound 200, 4-(((2H-Tetrazol-5-yl)methylamino)methyl)-N-(4-chloro-2-(4-(3,3,3-trifluoropropyl)piperazin-1-yl)phenyl)-2,3-difluorobenzamide] | 7.38 | 
7 | O=C(Nc1ccc(Cl)cc1N1CCN(CCC(F)(F)F)CC1)c1ccc(CNC(CO)(CO)CO)cc1F [Compound 103, N-(4-Chloro-2-(4-(3,3,3-trifluoropropyl)piperazin-1-yl)phenyl)-4-((1,3-dihydroxy-2-(hydroxymethyl)propan-2-ylamino)methyl)-2-fluorobenzamide] |  | 6.27
8 | O=C(O)CNCc1ccc(C(=O)Nc2ccc(Cl)cc2N2CCN(CCC(F)(F)F)CC2)c(F)c1F [Compound 202, 2-(4-(4-Chloro-2-(4-(3,3,3-trifluoropropyl)piperazin-1-yl)phenylcarbamoyl)-2,3-difluorobenzylamino)acetic acid] | 7.04 | 
9 | NC(=O)CCN1CCc2ccc(C(=O)Nc3ccc(Cl)cc3N3CCN(CCC(F)(F)F)CC3)cc2C1 [Compound 20, 2-(3-Amino-3-oxopropyl)-N-(4-chloro-2-(4-(3,3,3-trifluoropropyl)piperazin-1-yl)phenyl)-1,2,3,4-tetrahydroisoquinoline-7-carboxamide] | 6.21 | 
10 | O=C1CN(Cc2ccc(C(=O)Nc3ccc(Cl)cc3N3CCN(CCC(F)(F)F)CC3)c(F)c2F)CCN1 [Compound 167, N-(4-Chloro-2-(4-(3,3,3-trifluoropropyl)piperazin-1-yl)phenyl)-2,3-difluoro-4-((3-oxopiperazin-1-yl)methyl)benzamide] | 7.45 | 
11 | O=C(Nc1ccc(Cl)cc1N1CCN(CCC(F)(F)F)CC1)c1ccc(CN2C(=O)CNC2=O)c(F)c1F [Compound 428, N-(4-Chloro-2-(4-(3,3,3-trifluoropropyl)piperazin-1-yl)phenyl)-4-((2,5-dioxoimidazolidin-1-yl)methyl)-2,3-difluorobenzamide] | 7.13 | 
12 | O=C(O)CCC(=O)NCc1ccc(C(=O)Nc2ccc(Cl)cc2N2CCN(CCC(F)(F)F)CC2)c(F)c1F [Compound 293, 4-(4-(4-Chloro-2-(4-(3,3,3-trifluoropropyl)piperazin-1-yl)phenylcarbamoyl)-2,3-difluorobenzylamino)-4-oxobutanoic acid] | 6.99 | 
13 | NC(=O)[C@@H]1CCCN1Cc1ccc(C(=O)Nc2ccc(Cl)cc2N2CCN(CCC(F)(F)F)CC2)c(F)c1 [Compound 56, (S)-1-(4-(4-Chloro-2-(4-(3,3,3-trifluoropropyl)piperazin-1-yl)phenylcarbamoyl)-3-fluorobenzyl)pyrrolidine-2-carboxamide] | 7.25 | 
14 | O=C(Nc1ccc(Cl)cc1N1CCN(CCC(F)(F)F)CC1)c1ccc2c(c1)CN(C(=O)c1cccnc1)CC2 [Compound 259, N-(4-Chloro-2-(4-(3,3,3-trifluoropropyl)piperazin-1-yl)phenyl)-2-nicotinoyl-1,2,3,4-tetrahydroisoquinoline-7-carboxamide] | 6.97 | 
15 | NC(=O)[C@H](CO)NCc1ccc(C(=O)Nc2ccc(Cl)cc2N2CCN(CCC(F)(F)F)CC2)c(F)c1 [Compound 76, (S)-4-((1-Amino-3-hydroxy-1-oxopropan-2-ylamino)methyl)-N-(4-chloro-2-(4-(3,3,3-trifluoropropyl)piperazin-1-yl)phenyl)-2-fluorobenzamide] | 7.17 | 
16 | CC(C)(C)CCN1CCc2ccc(C(=O)Nc3ccc(Cl)cc3N3CCN(CCC(F)(F)F)CC3)cc2C1 [Compound 17, N-(4-Chloro-2-(4-(3,3,3-trifluoropropyl)piperazin-1-yl)phenyl)-2-(3,3-dimethylbutyl)-1,2,3,4-tetrahydroisoquinoline-7-carboxamide] | 6.41 | 
17 | O=C(O)CC1CNCCN1Cc1ccc(C(=O)Nc2ccc(Cl)cc2N2CCN(CCC(F)(F)F)CC2)c(F)c1F (stereo not shown) [Compound 226, 2-(1-(4-(4-Chloro-2-(4-(3,3,3-trifluoropropyl)piperazin-1-yl)phenylcarbamoyl)-2,3-difluorobenzyl)piperazin-2-yl)acetic acid] | 7.03 | 
18 | NC1(C(=O)NCc2ccc(C(=O)Nc3ccc(Cl)cc3N3CCN(CCC(F)(F)F)CC3)c(F)c2F)CCSCC1 [Compound 284, 4-Amino-N-(4-(4-chloro-2-(4-(3,3,3-trifluoropropyl)piperazin-1-yl)phenylcarbamoyl)-2,3-difluorobenzyl)tetrahydro-2H-thiopyran-4-carboxamide] | 7.24 | 
19 | O=C(Nc1ccc(Cl)cc1N1CCN(CCC(F)(F)F)CC1)c1ccc(CNC(=O)[C@H]2CC[C@@H](OP(=O)(O)O)CC2)c(F)c1F [Compound 392, (1s,4s)-4-(4-(4-Chloro-2-(4-(3,3,3-trifluoropropyl)piperazin-1-yl)phenylcarbamoyl)-2,3-difluorobenzylcarbamoyl)cyclohexyl dihydrogen phosphate] | 8.21 | 
20 | N#CCCNCc1ccc(C(=O)Nc2ccc(Cl)cc2N2CCN(CCC(F)(F)F)CC2)c(F)c1F [Compound 235, N-(4-Chloro-2-(4-(3,3,3-trifluoropropyl)piperazin-1-yl)phenyl)-4-((2-cyanoethylamino)methyl)-2,3-difluorobenzamide] | 7.41 | 
21 | O=C(Nc1ccc(Cl)cc1N1CCN(CCC(F)(F)F)CC1)c1ccc(CNC(=O)[C@H]2CC[C@@H](O)CC2)c(F)c1F [Compound 330, N-(4-Chloro-2-(4-(3,3,3-trifluoropropyl)piperazin-1-yl)phenyl)-2,3-difluoro-4-(((1s,4s)-4-hydroxycyclohexanecarboxamido)methyl)benzamide] | 7.93 | 
22 | NC(=O)[C@@H](COP(=O)(O)O)NCc1ccc(C(=O)Nc2ccc(Cl)cc2N2CCN(CCC(F)(F)F)CC2)c(F)c1F [Compound 250, (R)-3-Amino-2-(4-(4-chloro-2-(4-(3,3,3-trifluoropropyl)piperazin-1-yl)phenylcarbamoyl)-2,3-difluorobenzylamino)-3-oxopropyl dihydrogenphosphate] | 8.24 | 
